According to patent US12162888B2, “Carboxamides as ubiquitin-specific protease inhibitors” (Valo Early Discovery, Inc., priority 2018, dated 2024):

target: T1, USP28 (His-tagged USP28-FL-mammalian) (Homo sapiens, UniProt Q96RU2); assay: Ubiquitin-Rhodamine 110 Assay for USP28 Activity, Example A-1(a); format: biochemical; settings: biochemical IC50 range, Ubiquitin-Rhodamine 110 assay, read-out: USP28 A-1(a)
T1 construct: Expression of USP28 (1-1077)-TEV-6*His (pTT5 vector) was carried out in Expi293f cells; made in house; host or cells: Expi293F cells (pTT5 vector)
T1 sequence (Q96RU2 1-1077): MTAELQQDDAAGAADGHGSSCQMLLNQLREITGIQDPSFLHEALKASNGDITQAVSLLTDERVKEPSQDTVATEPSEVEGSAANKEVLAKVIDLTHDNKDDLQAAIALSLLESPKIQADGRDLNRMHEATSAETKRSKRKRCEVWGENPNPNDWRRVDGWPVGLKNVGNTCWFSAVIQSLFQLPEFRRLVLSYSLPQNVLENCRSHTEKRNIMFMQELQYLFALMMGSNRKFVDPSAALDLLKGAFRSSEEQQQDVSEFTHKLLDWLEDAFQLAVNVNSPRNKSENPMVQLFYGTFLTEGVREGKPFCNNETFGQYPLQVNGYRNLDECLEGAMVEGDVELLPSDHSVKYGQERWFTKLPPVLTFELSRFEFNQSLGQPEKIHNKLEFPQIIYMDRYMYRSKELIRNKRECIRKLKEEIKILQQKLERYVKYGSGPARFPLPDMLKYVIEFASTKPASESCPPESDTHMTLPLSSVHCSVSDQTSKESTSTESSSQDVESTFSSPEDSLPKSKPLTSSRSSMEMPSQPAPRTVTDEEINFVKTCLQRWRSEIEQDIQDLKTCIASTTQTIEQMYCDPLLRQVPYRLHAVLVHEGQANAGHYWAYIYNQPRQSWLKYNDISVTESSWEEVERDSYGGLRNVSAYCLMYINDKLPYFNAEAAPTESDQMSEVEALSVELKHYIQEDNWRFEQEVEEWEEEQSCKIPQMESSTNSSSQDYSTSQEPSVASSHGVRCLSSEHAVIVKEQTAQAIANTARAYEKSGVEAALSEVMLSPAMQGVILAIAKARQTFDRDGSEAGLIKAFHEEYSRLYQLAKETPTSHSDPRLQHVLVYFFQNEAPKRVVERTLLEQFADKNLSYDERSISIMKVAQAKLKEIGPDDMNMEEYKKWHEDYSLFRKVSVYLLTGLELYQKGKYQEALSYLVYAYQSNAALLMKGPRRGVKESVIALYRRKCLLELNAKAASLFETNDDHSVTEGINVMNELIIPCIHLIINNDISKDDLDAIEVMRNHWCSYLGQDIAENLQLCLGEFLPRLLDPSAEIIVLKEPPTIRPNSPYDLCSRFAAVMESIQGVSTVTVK
Procedure, shortened: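 Full-length His-tagged human USP28 (1-1077), expressed in Expi293F cells, was used at […] with 25 nM Ub-Rh110 (<<Km) in 20 mM Tris pH 8.0, 3 mM BME, 0.03% BGG and 0.01% Triton X-100. Compounds (25 μM-1.3 nM, 10-point) were preincubated with enzyme for 30 min, and the reaction ran 45 min at room temperature before a citric acid stop. Fluorescence was read at 485/535 nm, and IC50 came from 4-parameter fits of percent inhibition.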

SMILES | IC50 [nM]
CCOc1ncc(C(=O)N[C@H]2COc3cc(N4CCNCC4)ccc3C2)c2c1CCCN2 [Example 678, 5-ethoxy-N-[(3R)-7-(piperazin-1-yl)-3,4-dihydro-2H-1-benzopyran-3-yl]-1,2,3,4-tetrahydro-1,6-naphthyridine-8-carboxamide] | 1 to 50
CN[C@H]1CN(c2ccc3c(c2)OC[C@H](NC(=O)c2sc4nc(C)ccc4c2N)C3)C[C@H]1COC [Example 679, 3-amino-N-[(3R)-7-[(3R,4R)-3-(methoxymethyl)-4-(methylamino)pyrrolidin-1-yl]-3,4-dihydro-2H-1-benzopyran-3-yl]-6-methylthieno[2,3-b]pyridine-2-carboxamide] | 1 to 50
CN[C@@H]1CN(c2ccc3c(c2)OC[C@H](NC(=O)c2sc4nc(C)ccc4c2N)C3)C[C@@H]1COC [Example 680, 3-amino-N-[(3R)-7-[(3S,4S)-3-(methoxymethyl)-4-(methylamino)pyrrolidin-1-yl]-3,4-dihydro-2H-1-benzopyran-3-yl]-6-methylthieno[2,3-b]pyridine-2-carboxamide] | 1 to 50
Cc1ccc2c(N)c(C(=O)N[C@H]3COc4cc(N5C[C@H](N)C6(C5)OCCO6)ccc4C3)sc2n1 [Example 681, 3-amino-N-[(3R)-7-[(9S)-9-amino-1,4-dioxa-7-azaspiro[4.4]nonan-7-yl]-3,4-dihydro-2H-1-benzopyran-3-yl]-6-methylthieno[2,3-b]pyridine-2-carboxamide] | 1 to 50
Cc1ccc2c(N)c(C(=O)N[C@H]3COc4cc(N5C[C@@H](N)C6(C5)OCCO6)ccc4C3)sc2n1 [Example 682, 3-amino-N-[(3R)-7-[(9R)-9-amino-1,4-dioxa-7-azaspiro[4.4]nonan-7-yl]-3,4-dihydro-2H-1-benzopyran-3-yl]-6-methylthieno[2,3-b]pyridine-2-carboxamide] | 50 to 200
Cc1ccc2c(N)c(C(=O)N[C@H]3COc4cc(N5CC[C@]6(CCCN6)C5)cc(F)c4C3)sc2n1 [Example 683, 3-amino-N-[(3R)-7-[(5R)-1,7-diazaspiro [4.4]nonan-7-yl]-5-fluoro-3,4-dihydro-2H-1-benzopyran-3-yl]-6-methylthieno [2,3-b]pyridine-2-carboxamide] | 1 to 50
Cc1ccc2c(N)c(C(=O)N[C@H]3COc4cc(N5CC[C@@]6(CCCN6)C5)cc(F)c4C3)sc2n1 [Example 684, 3-amino-N-[(3R)-7-[(5S)-1,7-diazaspiro[4.4]nonan-7-yl]-5-fluoro-3,4-dihydro-2H-1-benzopyran-3-yl]-6-methylthieno [2,3-b]pyridine-2-carboxamide] | 1 to 50
Cc1ccc2c(N)c(C(=O)N[C@H]3COc4cc(OC[C@@H]5CNCC5(F)F)ccc4C3)sc2n1 [Example 685, 3-amino-N-[(3R)-7-{[(3S)-4,4-difluoropyrrolidin-3-yl]methoxy}-3,4-dihydro-2H-1-benzopyran-3-yl]-6-methylthieno[2,3-b]pyridine-2-carboxamide] | 1 to 50
Cc1ccc2c(N)c(C(=O)N[C@H]3COc4cc(OC[C@H]5CNCC5(F)F)ccc4C3)sc2n1 [Example 686, 3-amino-N-[(3R)-7-{[(3R)-4,4-difluoropyrrolidin-3-yl]methoxy}-3,4-dihydro-2H-1-benzopyran-3-yl]-6-methylthieno[2,3-b]pyridine-2-carboxamide] | 1 to 50
Cc1ccc2c(N)c(C(=O)N[C@H]3COc4cc(OC[C@@H]5CNC[C@H]5C(F)(F)F)ccc4C3)sc2n1 [Example 687, 3-amino-6-methyl-N-[(3R)-7-{[(3S,4S)-4-(trifluoromethyl)pyrrolidin-3-yl]methoxy}-3,4-dihydro-2H-1-benzopyran-3-yl]thieno[2,3-b]pyridine-2-carboxamide] | 1 to 50
Cc1ccc2c(N)c(C(=O)N[C@H]3COc4cc(OC[C@H]5CNC[C@@H]5C(F)(F)F)ccc4C3)sc2n1 [Example 688, 3-amino-6-methyl-N-[(3R)-7-{[(3R,4R)-4-(trifluoromethyl)pyrrolidin-3-yl]methoxy}-3,4-dihydro-2H-1-benzopyran-3-yl]thieno[2,3-b]pyridine-2-carboxamide] | 1 to 50
CO[C@@H]1CCCN(c2cc(F)c3c(c2)OC[C@H](NC(=O)c2sc4nc(C)ccc4c2N)C3)C[C@H]1N [Example 689, 3-amino-N-[(3R)-7-[(3R,4R)-3-amino-4-methoxyazepan-1-yl]-5-fluoro-3,4-dihydro-2H-1-benzopyran-3-yl]-6-methylthieno[2,3-b]pyridine-2-carboxamide] | 1 to 50
COC1CCCN(c2cc(F)c3c(c2)OCC(NC(=O)c2sc4nc(C)ccc4c2N)C3)CC1N [Example 690, 3-amino-N-[(3R)-7-[(3S,4S)-3-amino-4-methoxyazcpan-1-yl]-5-fluoro-3,4-dihydro-2H-1-benzopyran-3-yl]-6-methylthieno[2,3-b]pyridine-2-carboxamide] | 1 to 50
CO[C@H]1CCCN(c2cc(F)c3c(c2)OC[C@H](NC(=O)c2sc4nc(C)ccc4c2N)C3)C[C@H]1N [Example 691, 3-amino-N-[(3R)-7-[(3R,4S)-3-amino-4-methoxyazepan-1-yl]-5-fluoro-3,4-dihydro-2H-1-benzopyran-3-yl]-6-methylthieno[2,3-b]pyridine-2-carboxamide] | 50 to 200
CO[C@@H]1CCCN(c2cc(F)c3c(c2)OC[C@H](NC(=O)c2sc4nc(C)ccc4c2N)C3)C[C@@H]1N [Example 692, 3-amino-N-[(3R)-7-[(3S,4R)-3-amino-4-methoxyazepan-1-yl]-5-fluoro-3,4-dihydro-2H-1-benzopyran-3-yl]-6-methylthieno[2,3-b]pyridine-2-carboxamide] | 1 to 50
CO[C@H]1CN(c2cc(F)c3c(c2)OC[C@H](NC(=O)c2sc4nc(C)ncc4c2N)C3)C[C@@H]1N [Example 693, 5-amino-N-[(3R)-7-[(3S,4S)-3-amino-4-methoxypyrrolidin-1-yl]-5-fluoro-3,4-dihydro-2H-1-benzopyran-3-yl]-2-methylthieno[2,3-d]pyrimidine-6-carboxamide] | 200 to 2000
COC[C@@H]1CN(c2cc(F)c3c(c2)OC[C@H](NC(=O)c2sc4nc(C)ncc4c2N)C3)C[C@@H]1N [Example 694, 5-amino-N-[(3R)-7-[(3R,4R)-3-amino-4-(methoxymethyl)pyrrolidin-1-yl]-5-fluoro-3,4-dihydro-2H-1-benzopyran-3-yl]-2-methylthieno[2,3-d]pyrimidine-6-carboxamide] | 200 to 2000
CN[C@@H]1CN(c2cc(F)c3c(c2)OC[C@H](NC(=O)c2sc4nc(C)ncc4c2N)C3)C[C@H]1COC [Example 695, 5-amino-N-[(3R)-5-fluoro-7-[(3R,4S)-3-(methoxymethyl)-4-(methylamino)pyrrolidin-1-yl]-3,4-dihydro-2H-1-benzopyran-3-yl]-2-methylthieno[2,3-d]pyrimidine-6-carboxamide] | 200 to 2000
CCn1cc(Cl)c2cc(C(=O)N[C@H]3COc4cc(N5C[C@H](OC)[C@@H](N)C5)ccc4C3)nnc21 [Example 696, N-[(3R)-7-[(3S,4S)-3-amino-4-methoxypyrrolidin-1-yl]-3,4-dihydro-2H-1-benzopyran-3-yl]-5-chloro-7-ethyl-7Hpyrrolo[2,3-c]pyridazine-3-carboxamide] | 200 to 2000
